Results on 29 compounds are retold here after PubChem BioAssay (NCI).

The structures appear in SMILES notation.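 Compound exposure: 48 hours, 5 concentrations, 96-well plates. At the GI50, growth is halved. Definition used: TGI = concentration required for complete inhibition of growth.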

Test in all cases: inhibition of tumour cell growth, NCI panel, 48 h
Assay [1] has as its system SK-OV-3 ovarian.
Assay [2] has as its system SK-MEL-28 melanoma.
The subject of assay [3] is SNB-19 CNS.
Assay [4] deals with MOLT-4 leukemia.
In assay [5] the test system is LXFL 529 NSCLC.
The test system of assay [6] is IGROV1 ovarian.
In assay [7] the test system is SNB-78 CNS.
The test system of assay [8] is KM20L2 colon.
In assay [9] the test system is PC-3 prostate.
For assay [10], the system named is DU-145 prostate.

As to `O=c1c(-c2ccccc2)c2oc(c1-c1ccccc1)CS(=O)(=O)CCC2`, the TGI in [1] is > 100 µM; in assay [2], 38.3 µM; in assay [3] it was > 100 µM; in [4], > 100 µM; in assay [5], 33.7 µM; in assay [6] it was > 100 µM.

Take `COc1ccc(/C=N/N=C(\N)NO)c(Cl)c1O`: the TGI in assay [7], in [1], in assay [2], in [3], in assay [4] and in assay [5] was > 100 µM each time. Also, the TGI in [6] is > 100 µM.

In the case of `N.N.N.N.O=NN1CCCCCC1(P(=O)([O-])[O-])P(=O)([O-])[O-].[Pt+4].[Pt+4]`, the GI50 in [1], in assay [2], in assay [3], in [4], in assay [5] and in [6] was > 100 µM throughout. Moreover, the GI50 in assay [8] is > 100 µM. For the same compound, the TGI in assay [1], in [2], in assay [3], in [4], in assay [5] and in [6] was > 100 µM each time. Moreover, the TGI in [8] was > 100 µM.

For `CCOC(=O)C1(C#N)C(c2ccccc2)CC(O)(c2ccc([N+](=O)[O-])cc2)C(C(=O)c2ccc([N+](=O)[O-])cc2)C1c1ccccc1` (centres undefined), the TGI in assay [7], in assay [1], in assay [2], in [3], in assay [4] and in assay [5] was > 100 µM throughout. Also, the TGI in [6] and in [8] was > 100 µM in each case.

Consider `CC(C)N(C(=O)C1(C)CC1)C(C)C`, for which the TGI in [7], in assay [1], in [2], in assay [3], in assay [4] and in assay [5] was > 100 µM each time. In addition, the TGI in assay [6] and in [8] was > 100 µM throughout.

As for `CC(=O)[O-].CC(=O)[O-].O=C(N/N=C/c1cc(Cl)cc(Cl)c1O)c1ccncc1.[Ni+2]`, the TGI in [1], in assay [2], in assay [3], in [4], in [6] and in assay [8] was > 100 µM in each case.

Turning to `Cc1ccc(-n2c3nc(=O)n(C)c(=O)c-3nc3ccccc32)cc1`, the TGI in assay [7] was > 100 µM; in assay [1] it was > 100 µM; in [3], 33.5 µM; in assay [4], 41.2 µM; in assay [5] it was > 100 µM; in assay [6], 92.1 µM. In assay [8], this compound had a TGI of 26.3 µM.

For the compound `O=C1OC(c2ccccc2)=N/C1=C\c1ccc2ccccc2c1`, the TGI in assay [7], in [1], in assay [2], in assay [3], in assay [4] and in assay [6] was > 100 µM throughout. In addition, the TGI in assay [8] is > 100 µM.

Consider `CCCCCCCCCCCCCCCCOCC(CN(C)CCN(C)C)OCCCCCCCCCCCCCCCC` (centres undefined), for which the TGI in [7], in assay [1], in [2], in assay [3], in [4] and in assay [5] was > 100 µM each time. The TGI in assay [6] and in assay [8] was > 100 µM in each case.

As for `O=c1cc(-c2ccccc2)oc2cc(OCC(O)COc3ccc4c(=O)cc(-c5ccccc5)oc4c3)ccc12`, the TGI in [7] was 58.9 µM; in assay [1], 76.7 µM; in assay [2], > 100 µM; in assay [3], 53.6 µM; in assay [4], > 100 µM; in assay [5] it was > 100 µM. For the same compound, the TGI in [6] and in assay [8] was > 100 µM each time.

Consider `N#CC(/C(=N\NC(=O)c1ccncc1)C(=O)Nc1ccc([N+](=O)[O-])cc1[N+](=O)[O-])c1nc(-c2ccc(Br)cc2)cs1` (centres undefined), for which the TGI in assay [7], in assay [1], in [2], in assay [3], in assay [4] and in assay [5] was > 100 µM throughout. Further, the TGI in assay [6] and in assay [8] was > 100 µM each time.

As for `C=CCCCn1ccc2ccccc21`, the TGI in assay [1], in [2], in assay [3], in assay [4], in [5] and in assay [6] was > 100 µM throughout. For the same compound, the TGI in assay [8] is > 100 µM.

Turning to `Nc1nc(Cl)cc(NCCCCCNc2cc(Cl)nc(N)n2)n1`, the TGI in assay [7] is 88 µM; in assay [1] it was > 100 µM; in assay [2], > 100 µM; in assay [3], > 100 µM; in assay [4], > 100 µM; in assay [5], > 100 µM. In addition, the TGI in assay [6] and in [8] was > 100 µM each time.

In the case of `COc1cc(OC)c2ssc3c(OC)cc(OC)c4ssc1c2-c43`, the TGI in assay [7], in assay [1], in [2], in [3], in [4] and in assay [5] was > 100 µM throughout. Further, the TGI in assay [6] and in assay [8] was > 100 µM in each case.

On to `CC1=C(C(=O)Nc2ccccc2)C(c2ccc([N+](=O)[O-])cc2)C(C(=O)Nc2ccccc2)=C(C)N1`, for which the TGI in [7] was > 100 µM; in [2], 88.5 µM; in assay [3], 32 µM; in assay [4], > 100 µM; in [5] it was 46.5 µM; in [6] it was > 100 µM. The compound also displayed a TGI in assay [8] of 35.3 µM.

On to `COc1cc(Br)c(CC2(C#N)c3ccccc3C3C(N2C(=O)c2ccccc2)C3(Cl)Cl)cc1OC` (centres undefined), for which the TGI in assay [7], in assay [1], in assay [2], in [3], in assay [5] and in assay [6] was > 65.5 µM throughout. The TGI in assay [8] is > 65.5 µM.

`C=CC(=O)N1C/C(=C\c2ccccc2)C(=O)/C(=C/c2ccccc2)C1`: the TGI amounted to 7.58 µM in assay [1]; 3.78 µM in assay [2]; 7.12 µM in assay [3]; 4.5 µM in [4]; 2.82 µM in assay [5]; 3.91 µM in assay [9]. Besides, the results for the TGI in assay [10], in assay [6] and in assay [8] were 15.9 µM, 4.2 µM and 3.1 µM, respectively. Moreover, the GI50 in [4] was 0.562 µM.

Take `C[N+](C)(C)CC(=O)N/N=C(\CCC(=O)NCCc1ccccc1)CC(=O)c1ccccc1`: the TGI in assay [7], in [1], in assay [3], in assay [4], in assay [5] and in assay [6] was > 100 µM throughout. Also, in assay [8], the TGI is > 100 µM.

On to `CC(/C=C/C(=O)c1sc(-n2nc(-c3ccccc3)cc2-c2ccccc2)nc1C)=C\c1ccccc1`, for which the TGI in assay [1], in assay [2], in [3], in assay [4], in assay [5] and in [6] was > 100 µM in each case. The TGI in assay [8] was > 100 µM. The GI50 in assay [2] is > 100 µM.

For `CCSC(SCC)c1cc2c(cc1Br)OCO2`, the TGI is > 100 µM in assay [7]; 88.6 µM in [1]; > 100 µM in assay [2]; > 100 µM in [3]; 42.2 µM in [4]; > 100 µM in assay [6]. In assay [8], this compound registered a TGI of 64.7 µM.

Take `CC1CN(c2ccc(Cl)cc2)CC(C)(C)OC(=O)O1` (centres undefined): the TGI in assay [7], in [1], in [2], in assay [3], in assay [5] and in assay [6] was > 100 µM each time. In addition, in [8], the TGI was > 100 µM.

As to `COCc1c(CO)cnc(C)c1OC1OC(CO)C(O)C(O)C1O` (centres undefined), the TGI in assay [1], in [2], in assay [3], in assay [4], in [5] and in assay [6] was > 100 µM throughout. Moreover, the TGI in [8] was > 100 µM.

For the compound `O=C(/C=C/c1ccc(O)c(O)c1)OC1C[C@@](O)(C(=O)O)C[C@@H](O)[C@H]1OC(=O)/C=C/c1ccc(O)c(O)c1` (some centres undefined), the TGI in [7], in assay [1], in assay [2], in assay [4], in [5] and in [6] was > 100 µM each time. The TGI in assay [8] is > 100 µM.

Regarding `COc1cccc(Cn2c(-c3nonc3N)nc3ccccc32)c1`, the GI50 in [1] was 0.414 µM; in assay [2], 0.781 µM; in [3] it was 0.907 µM; in assay [4], 0.632 µM; in assay [9], 0.435 µM; in [10], 0.591 µM. Also, the GI50 in assay [6] is 0.624 µM. The TGI in assay [1] was 25.9 µM; in [2], > 91.8 µM; in [3], > 100 µM; in assay [4] it was > 100 µM; in assay [9], > 84.2 µM; in assay [10], > 100 µM. Further, the TGI in assay [6] was > 75.6 µM.

Regarding `C/C1=C/C(=O)O[C@@H]2C[C@@H](CC[C@H](C)/C=C\C=C\CC1)O[C@@](O)([C@@H]1CSC(=O)N1CO)C2`, the GI50 was 0.0504 µM in assay [1]; 0.164 µM in assay [2]; 0.0833 µM in assay [3]; 3.42 µM in [4]; 0.0367 µM in assay [9]; 0.239 µM in [10]. Besides, in assay [6], the GI50 was 0.0251 µM. In addition, the TGI in [1] is 0.404 µM; in assay [2] it was 0.603 µM; in assay [3], 0.671 µM; in assay [4], > 51.8 µM; in [9], 3.13 µM; in assay [10], > 57.3 µM. The same compound registered a TGI in assay [6] of 0.0928 µM.

Regarding `NC(=O)C1c2ccccc2C=Cc2ccccc21`, the GI50 in assay [1], in assay [2], in assay [3], in [4], in [9] and in assay [10] was > 100 µM in each case. The GI50 in [6] is > 100 µM. Besides, the TGI in assay [1], in [2], in [3], in assay [4], in [9] and in assay [10] was > 100 µM in each case. For the same compound, the TGI in assay [6] is > 100 µM.

Consider `CNC(=O)c1c(NC(=O)c2ccc(C(F)(F)F)cc2)sc2c1CCC(=O)C2`, for which the GI50 is 2.26 µM in assay [1]; 0.864 µM in assay [2]; 0.735 µM in [3]; 0.47 µM in [4]; 0.186 µM in assay [9]; 4.18 µM in assay [10]. The GI50 in assay [6] is 0.471 µM. Moreover, the TGI in [1] is 7.2 µM; in [2], 3.67 µM; in assay [3], > 65.9 µM; in assay [4], 4.01 µM; in [9], 1.35 µM; in [10], > 100 µM. In assay [6], this compound gave a TGI of 4.89 µM.

For the compound `CC(C)C1C(=O)NC(CO)Cc2c[nH]c3c(C(c4c[nH]c5ccccc45)C(O)CO)ccc(c23)N1C` (centres undefined), the TGI in [7], in assay [1], in assay [2], in [3], in assay [4] and in assay [5] was > 100 µM throughout. Further, the TGI in assay [6] was > 100 µM.

For `C=C(C)[C@@H]1CC[C@]2(C(N)=O)CC[C@]3(C)[C@H](CC[C@@H]4[C@@]5(C)CC[C@H](O)C(C)(C)[C@@H]5CC[C@]43C)[C@@H]12`, the GI50 in assay [1] is 8.18 µM; in assay [2], 10.9 µM; in assay [3], 4.57 µM; in assay [4] it was 3.43 µM; in assay [9], 2.83 µM; in assay [10] it was 3.21 µM. Further, the GI50 in assay [6] was 3.32 µM. Besides, the TGI in assay [1] stood at 29.8 µM; in assay [2] it was 42.3 µM; in [3] it was 34.3 µM; in assay [4] it was 18.3 µM; in assay [9], 14.7 µM; in assay [10], 10.1 µM. The compound also registered a TGI in assay [6] of 14.5 µM.
